Measurements reported in paper PMC3410885, “6-Arylpyrido[2,3-d]pyrimidines as Novel ATP-Competitive Inhibitors of Bacterial D-Alanine:D-Alanine Ligase” (PLoS ONE, 2012).
≈ marks a conversion by molar mass, not a printed value.

Columns and labels:
E. coli DdlB [1] = molecular target: T1, E. coli DdlB (Escherichia coli, UniProt P07862); experiment: Colorimetric malachite green inhibition assay of DdlB; type: biochemical; conditions: for Ki: against ATP (50-500 μM), D-Ala 10 mM, competitive model; for mode of inhibition of DdlB: kinetic analysis at different inhibitor and ATP concentrations; for IC50: malachite green assay, 700 μM D-Ala, 500 μM ATP, 37°C, 20 min, read-out: inhibitory activity on DdlB: IC50
T1 construct: polyhistidine (His) tag (N); made in house; host or cells: E. coli BL21(λDE3), vector pQE-30 UA (Qiagen)
Protocol: All of the synthesized 6-arylpyrido[2,3-d]pyrimidines 11–36 were assayed for in vitro inhibitory activity on E. coli DdlB by detecting orthophosphate generated during the enzymatic reaction using a Malachite green assay.
Inhibition of DdlB was measured at different inhibitor and ATP concentrations in order to determine Ki values and the mode-of-action of both compounds.
The target compounds were tested for their ability to inhibit the D-Ala-adding activity of DdlB ligase with the colorimetric malachite green method in which orthophosphate generated during the reaction is measured. Each compound was tested in duplicate at 100, 250 or 500 μM in a mixture, final volume 50 μL, containing 50 mM Hepes (pH 8.0), 5 mM MgCl2, 10 mM (NH4)2SO4, 10 mM KCl, 700 μM D-Ala, 500 μM ATP, purified His-tagged DdlB (diluted in 50 mM Hepes (pH 7.2) and 1 mM DTT) and the test compound dissolved in DMSO. The final concentration of DMSO was 5% (v/v). The reaction mixture was incubated at 37°C for 20 min, then quenched with 100 μL of Biomol reagent and absorbance at 650 nm was measured after 5 min. To exclude possible promiscuous inhibitors, all compounds were tested in the presence of Triton-114 (0.005%). Residual activities were calculated relative to control assays without the compounds and with DMSO.

E. coli DdlB [2] = molecular target: T1, E. coli DdlB; experiment: Isothermal titration calorimetry of binding to DdlB; conditions: ITC, 37°C; for entropy contribution of binding ([drawing 6]) / standard Gibbs free energy of binding ([drawing 5]): calculated from the fitted parameters
Protocol: Two of the compounds, 14 and 33, were also tested by ITC to obtain thermodynamic parameters of the binding into DdlB active site. Heat changes upon binding of the ligand on the E. coli DdlB were measured directly, corrected for the heats of dilution, and the model function was fitted to the experimental data points (see the Experimental section).
The value of critical parameter for obtaining highly reliable thermodynamic data ( [drawing 10] ) was not optimal due to low inhibitors solubility and quite low binding constants. Nevertheless, the conclusions below can be drawn. Experiments for the two compounds result in similar binding constants (K b≈10^5 M^−1) (Table 1), but the driving forces for the binding differ (Figure 11). The binding of compound 14 to DdlB results from favourable enthalpy and entropy contributions. […] But still, compensation of the opposing effects at 33 results in similar [drawing 11] (and binding constant) as at 14, although there are less specific interactions between 33 and the protein as at 14.
The heat changes upon binding were measured using a VP-ITC microcalorimeter from MicroCal, LLC (Northampton, MA, USA). Purified DdlB stock solution in 20% glycerol was dialysed for 40 hours at 4°C (50 mM Hepes, pH = 8.0, 10 mM KCl, 10 mM (NH4)2SO4, 5 mM MgCl2, and 0.01% Triton X-114) prior to titration. The ligand solutions were prepared by adding a stock solution of 14 or 33 in DMSO to the dialysis buffer to obtain final 50 μM solution of the DdlB inhibitor in 5% DMSO. Successive aliquots (11–31 μl) of the degassed ligand solution were injected at 5–8 min intervals by a motor driven syringe (300 μl) into the degassed DdlB solution (approximately 2 μM, 5% DMSO) in the calorimeter cell (V = 1.386 ml) with constant stirring (300 rpm) at 37°C. At the end of experiment the final ratio of ligand:enzyme in the titration cell was about 6∶1. The titration data was further corrected for the heat changes observed in the control titration of ligand solution into the dialysis buffer, 5% DMSO, alone. The experimental data was analysed using the Origin 7.0 software provided by MicroCal and fitted by a home written program, based on the non-linear Levenberg–Marquardt χ^2 regression procedure, assuming a single binding site model (two parameter fit): [drawing 12] [drawing 13] where P, L, and PL represent DdlB, ligand, and DdlB-ligand complex, ΔH and [drawing 14] are the measured enthalpy upon aliquot addition and the standard enthalpy change of the binding reaction, [drawing 15] and [drawing 16] represent the total number of moles of ligand and DdlB-ligand complex in the titration cell, r is the bound ligand to total protein concentration,[P]tot, ratio and K b is the binding constant. A detailed explanation of the applied model equation is given in the Information S2.

[3] = test system: E. coli strains (1411, AB734, SM1411, ES100); experiment: Antibacterial activity stated for the E. coli strains together; type: cell-based; conditions: Escherichia coli; read-out: MICs against all strains
Protocol: (§1) Selected DdlB inhibitors were tested for their antibacterial activity against two E. coli strains E. coli 1411 and E. coli AB734 (Table 2). […] Additionally, growth inhibition of efflux pump-deficient strains SM1411 (acrAB deficient derivative of 1411) and ES100 (tolC deficient derivative of AB734) was measured, and MICs were repeated for each strain in the presence of polymyxin B nonapeptide (PMBN) to assess the impact of outer-membrane permeability on antimicrobial activity.
(§2) Minimum inhibitory concentrations (MICs) were determined by broth microdilution against E. coli 1411, SM1411 (acrAB deficient derivative of 1411), AB734 and ES100 (tolC deficient derivative of AB734) according to CLSI guidelines. MICs were repeated for each strain in the presence of polymyxin B nonapeptide (4 μg/ml) to assess the impact of outer-membrane permeability on antimicrobial activity.

DdlB = molecular target: T2, DdlB (Escherichia coli, UniProt P07862); experiment: Surface plasmon resonance binding to immobilised DdlB; conditions: steady-state affinity model; 25°C; 50 mM Hepes, 150 mM NaCl, 5% DMSO; read-out: KD (SPR)
T2 construct: polyhistidine (His) tag (N); made in house; host or cells: E. coli BL21(λDE3), vector pQE-30 UA (Qiagen)
Protocol: The binding of the compounds 11, 13, 14, 24, 27, 33, and 35 to the target enzyme was confirmed using surface plasmon resonance (SPR) (Figure 10). Experiments were performed at conditions that enable long term stability of the enzyme. […] The enzyme was covalently attached to the surface of a sensor chip CM5 and compounds were titrated over the surface. The binding of all the compounds was characterised by fast association and dissociation rates. Equilibrium affinity constants, estimated from the steady-state binding levels are in agreement with enzymatic studies and ITC. In addition, the binding of other compounds was tested but insufficient solubility at higher concentrations of analytes in the running buffer precluded analysis.
Figure 10 SPR analysis of compounds binding to DdlB. Different concentrations of compounds were tested for the binding (left panels in all cases). The binding curves (right panels) were generated by ploting steady-state response levels, i.e. at the end of the association phase, vs concentration of the injected compound. For each compound 3–5 independent titrations were performed.
The binding constants were obtained by using a Biacore T100 (Biacore, GE Healthcare, USA). […] Two 1 min injections of 50 μg/ml DdlB diluted in 10 mM Na-acetate, pH 4.0 were applied on the second flow cell. The first flow cell was left unmodified and served as a control for non-specific binding of tested compounds. The remaining active groups on the surface of both flow cells were deactivated with a 7-min injection of ethanolamine. The level of immobilized enzyme was around 10000 response units.
Each analyte was titrated, with 3 or 4 repetitions, using different concentrations according to their solubility in running buffer (50 mM Hepes, 150 mM NaCl, 5% DMSO, pH 7.4), usually from 0,781 μM to 500 μM. One concentration was repeated at the end of the assay in each dilution series, in order to check the surface stability and repeatability. The association lasted 60 seconds at a flow-rate 30 μl/min. No regeneration was needed. All experiments were performed at 25°C. Sensorgrams were double referenced by subtracting the signal obtained in the empty flow cell and the injection of the buffer. The steady-state response levels were fitted using the Steady State Affinity model in Biacore T100 Evaluation software.

[4] = test system: SM1411 (acrAB deficient derivative of 1411); experiment: MIC by broth microdilution, SM1411; type: cell-based, E. coli
Protocol: as §1, §2

[5] = test system: ES100 (tolC deficient derivative of AB734); experiment: MIC by broth microdilution, ES100; type: cell-based, E. coli
Protocol: as §1, §2

E. coli BC enzyme = conditions: read-out: IC50 for the E. coli BC enzyme; cited from earlier work
Ddl = molecular target: Ddl; set-up: method as in PMID 14479178; conditions: read-out: Ki of D-cycloserine on Ddl; cited from earlier work
[6] = with polymyxin B nonapeptide (4 μg/ml)

Row | Compound | Ki (E. coli DdlB [1]) | mode of inhibition of DdlB (E. coli DdlB [1]) | IC50 (E. coli DdlB [1]) | fold greater DdlB inhibitory potency than corresponding diamine 13 (E. coli DdlB [1]; ratio of IC50 values, 14 against 13) | Kd (E. coli DdlB [2]) | standard enthalpy of binding ([drawing 4]) (E. coli DdlB [2]) | entropy contribution of binding ([drawing 6]) (E. coli DdlB [2]) | standard Gibbs free energy of binding ([drawing 5]) (E. coli DdlB [2]) | MIC [3] | Kd (DdlB) | MIC ([4]; Escherichia coli, read-out: MIC SM1411 (acrAB)) | MIC SM1411 +PMBN [4, 6] | MIC ([5]; Escherichia coli, read-out: MIC ES100 (tolC)) | MIC ES100 +PMBN [5, 6] | IC50 (E. coli BC enzyme) | melting point | Ki (Ddl)
1 | COc1cc(OC)cc(-c2cc3cnc(N)nc3nc2NC(=O)NC(C)(C)C)c1 [Compound 14, 1-(2-amino-6-(3,5-dimethoxyphenyl)pyrido[2,3-d]pyrimidin-7-yl)-3-tert-butylurea] | 31 ± 4 µM | ATP competitive inhibitors | 340 µM | 2.6 fold | 10 µM | -4 kcal/mol | 3 kcal/mol | -7 kcal/mol | > 256 µg/mL | 19 ± 6.6 µM | – | – | – | – | – | – | –
2 | CC(C)(C)NC(=O)Nc1nc2nc(N)ncc2cc1-c1c(Cl)cccc1Cl [Compound 27, 1-(2-amino-6-(2,6-dichlorophenyl)pyrido[2,3-d]pyrimidin-7-yl)-3-tert-butylurea] | – | – | 655 µM | – | – | – | – | – | > 256 µg/mL | 16.7 ± 6.5 µM | – | – | – | – | – | – | –
3 | Nc1ncc2cc(-c3c(Br)cccc3Br)c(N)nc2n1 [Compound 33, 6-(2,6-dibromophenyl)pyrido[2,3-d]pyrimidine-2,7-diamine] | 38 ± 5 µM | ATP competitive inhibitors | 453 µM | – | 10 µM | 4 kcal/mol | 11 kcal/mol | -7 kcal/mol | – | 161 ± 73.7 µM | 1 µg/mL (≈ 2.53 µM) | 0,25 μg/ml | 0.5 µg/mL (≈ 1.27 µM) | 0,125 μg/ml | < 0.005 µM | – | –
4 | Nc1ncc2cc(-c3ccc4c(c3)OCO4)c(N)nc2n1 [Compound 35, 6-(benzo[d][1,3]dioxol-5-yl)pyrido[2,3-d]pyrimidine-2,7-diamine] | – | – | 1110 µM | – | – | – | – | – | > 256 µg/mL | 104 ± 36.2 µM | – | – | – | – | – | > 300 °C | –
5 | N[C@@H]1CON=C1O [D-cycloserine, D-4-amino-3-isoxazolidone, reference compound] | – | – | 296 µM | – | – | – | – | – | – | – | – | – | – | – | – | – | 27 µM
